Measurements as given in US8318762B2, “Pyrazolospiroketone acetyl-CoA carboxylase inhibitors” (Pfizer Inc., priority 2008, dated 2012).
pIC50: −log10 of the molar value.

Columns and labels:
[1] = molecular target: rat liver ACC (Rattus norvegicus, UniProt P11497); type: biochemical; details: rat liver ACC radio enzymatic assay
Protocol: [1] Preparation of rat liver ACC. Rat liver ACC was obtained from rat liver based upon standard procedures such as those described by Thampy and Wakil (J. Biol. Chem. 260: 6318-6323; 1985) using the following method.
Male CD rats weighing 150-200 g were fasted for 18-24 hours and then fed a high sucrose diet (AIN-76A rodent diet; Cat # D10001, Research Diets Inc., New Brunswick, N.J.), for 3 days at which time they were sacrificed by CO2 asphyxiation. The livers were removed, rinsed in ice-cold phosphate-buffered saline (PBS), and homogenized in 5 volumes of homogenization buffer (50 mM potassium phosphate, pH 7.5, 10 mM EDTA, 10 mM 2-mercaptoethanol, 2 mM benzamidine, 0.2 mM phenylmethylsulfonylfluoride (PMSF), 5 mg/L each leupeptin, aprotinin, and antitrypsin) in a Waring® blender for 1 minute at 4° C. All subsequent operations were carried out at 4° C. The homogenate has made 3% with respect to polyethylene glycol (PEG) by the addition of 50% PEG solution and centrifuged at 20,000×g for 15 minutes. The resulting supernatant was adjusted to 5% PEG with the addition of 50% PEG solution and stirred for 5 minutes. The pellet (contains ACC activity) was collected by centrifugation at 20,000×g for 20 minutes, rinsed with ice-cold doubly distilled water to remove excess PEG and re-suspended in one-fourth the original homogenate volume with homogenization buffer. Ammonium sulfate (200 g/liter) was slowly added with stirring. After 45 minutes the enzyme is collected by centrifugation for 30 minutes at 20,000×g, re-suspended in 10 mL of 50 mM HEPES, pH7.5, 0.1 mM DTT, 1.0 mM EDTA, and 10% glycerol and desalted on a Sephadex™ G-25 column (2.5 cm×50 cm) (Pharmacia, Piscataway N.J. now GE Healthcare) equilibrated with the same buffer. The desalted enzyme preparation was stored in aliquots at −70° C. Immediately prior to use, frozen rat liver ACC aliquots were thawed, diluted to 500 μg/mL in buffer containing 50 mM HEPES, pH7.5, 10 mM MgCl2, 10 mM tripotassium citrate, 2.0 mM dithiothreitol (DTT), and 0.75 mg/mL fatty acid-free bovine serum albumin (BSA) and pre-incubated at 37° C. for 30 minutes.
[2] Measurement of rat liver ACC inhibition. For measurement of ACC activity and assessment of ACC inhibition, test compounds were dissolved in dimethylsulfoxide (DMSO) and 1 μL aliquots were added to a clear bottom, 96-well plates (Perkin-Elmer PN#1450-514). Control wells contain 1 μL of DMSO alone or 1 μL of high inhibition compound. The enzyme obtained from rat liver as described above was activated in Enzyme buffer at 37° C. for 30 minutes prior to addition to compound plate. All wells receive 75 μL of activated enzyme (1.33×) in a buffer containing 50 mM HEPES, pH7.5, 7.5 mM MgCl2 7.5 mM tripotassium citrate, 2 mM DTT, 50 mg/mL BSA. The activated enzyme was pre-incubated with the cmpd for 10 minute prior to initiating the reaction through the addition of 25 μL of substrate solution containing 50 mM HEPES, pH7.5, 7.5 mM MgCl2 7.5 mM tripotassium citrate, 2 mM DTT, 50 mg/mL BSA, 120 μM acetyl-CoA, 8.0 mM ATP, 38.4 mM KHCO3, and 1.6 mM NaH[^14C]O3 ([…]). The final substrate concentrations in the reaction were 30 μM Acetyl-CoA, 9.6 mM KHCO3, 0.4 mM NaH[^14C]O3, and 2 mM ATP. The reaction was terminated after 10 mins by the addition of 25 μL 3N HCl and the plates were dried at 50° C. for a minimum 20 hrs. 30 μL of water was added to the dried plate and mixed for 5 minutes. 95 μL of Optiphase Supermix liquid scintillation fluid (Perkin Elmer, Waltham, Mass.) was added and the plates are mixed for 20 minutes. Incorporation of ^14C into MCoA was measured using a Wallac Trilux 1450 Microbeta LSC luminescence counter.

[2] = system: malonyl-CoA levels in muscle tissue; test: Acute in vivo assessment of ACC inhibition: malonyl-CoA levels in muscle tissue (quadriceps); parameters: species or system male Sprague-Dawley Rats; details: relative to chow-fed vehicle control group, % decrease +/- SEM
Protocol: (§1) The ACC inhibitory activity of the compound of the present invention can be confirmed in vivo by evaluation of their ability to reduce malonyl-CoA levels in liver and muscle tissue from treated animals.
(§2) Measurement of malonyl-CoA production inhibition in experimental animals. In this method, male Sprague-Dawley Rats, maintained on standard chow and water ad libitum (225-275 g), were randomized prior to the study. Animals were either fed, or fasted for 18 hours prior to the beginning of the experiment. Two hours into the light cycle the animals were orally dosed with a volume of 5 mL/kg, (0.5% methyl cellulose; vehicle) or with the appropriate compound (prepared in vehicle). Fed vehicle controls were included to determine baseline tissue malonyl-CoA levels while fasted animals were included to determine the effect fasting had on malonyl-CoA levels. One hour after compound administration the animals were asphyxiated with CO2 and the tissues were removed. Specifically, blood was collected by cardiac puncture and placed into BD Microtainer tubes containing EDTA (BD Biosciences, NJ), mixed, and placed on ice. Plasma was used to determine drug exposure. Liver and quadriceps were removed, immediately freeze-clamped, wrapped in foil and stored in liquid nitrogen.
(§3) Tissues were pulverized under liquid N2 to ensure uniformity in sampling. Malonyl-CoA was extracted from the tissue (150-200 mg) with 5 volumes 10% […] in Lysing Matrix A (MP Biomedicals, PN 6910) in a FastPrep FP120 (Thermo Scientific, speed=5.5; for 45 seconds). The supernatant containing malonyl-CoA was removed from the cell debris after centrifugation at 15000×g for 30 minutes (Eppendorf Centrifuge 5402). Samples were stably frozen at −80 C until analysis is completed.
(§4) Analysis of malonyl CoA levels in liver and muscle tissue can be evaluated using the following methodology.
(§5) The method utilizes the following materials: Malonyl-CoA tetralithium salt and malonyl-^13C3-CoA trilithium salt which were purchased from Isotec (Miamisburg, Ohio, USA), sodium perchlorate (Sigma, cat no. 410241), trichloroacetic acid (ACROS, cat no. 42145), phosphoric acid (J. T. Baker, cat no. 0260-01), ammonium formate (Fluke, cat no. 17843), methanol (HPLC grade, J. T. Baker, cat no. 9093-33), and water (HPLC grade, J. T. Baker, 4218-03) were used to make the necessary mobile phases. Strata-X on-line solid phase extraction columns, 25 μm, 20 mm×2.0 mm I.D (cat no. 00M-S033-B0-CB) were obtained from Phenomenex (Torrance, Calif., USA). SunFire C18 reversed-phase columns, 3.5 μm, 100 mm×3.0 mm I.D. (cat no. 186002543) were purchased from Waters Corporation (Milford, Mass., USA).
(§6) This method may be performed utilizing the following equipment. Two-dimensional chromatography using an Agilent 1100 binary pump, an Agilent 1100 quaternary pump and two Valco Cheminert 6-port two position valves. Samples were introduced via a LEAP HTC PAL auto sampler with Peltier cooled stack maintained at 10° C. and a 20 μL sampling loop. The needle wash solutions for the autosampler are 10% trichloroacetic acid in water (w/v) for Wash 1 and 90:10 methanol:water for Wash 2. The analytical column (Sunfire) was maintained at 35° C. using a MicroTech Scientific Micro-LC Column Oven. The eluant was analyzed on an ABI Sciex API3000 triple quadrupole mass spectrometer with Turbo Ion Spray.
(§7) Two-dimensional chromatography was performed in parallel using distinct gradient elution conditions for on-line solid phase extraction and reversed-phase chromatography. The general design of the method was such that the first dimension was utilized for sample clean-up and capture of the analyte of interest followed by a brief coupling of both dimensions for elution from the first dimension onto the second dimension. The dimensions were subsequently uncoupled allowing for gradient elution of the analyte from the second dimension for quantification while simultaneously preparing the first dimension for the next sample in the sequence. […]

[3] = system: malonyl-CoA levels in liver; test: Acute in vivo assessment of ACC inhibition: malonyl-CoA levels in liver tissue; parameters: species or system male Sprague-Dawley Rats; details: relative to chow-fed vehicle control group, % decrease +/- SEM
Protocol: as §1, §2, §3, §4, §5, §6, §7

[4] = molecular target: T1, recombinant human ACC2 (Homo sapiens, UniProt O00763); test: Measurement of human ACC2 inhibition (recombinant hACC2 Transcreener ADP detection FP assay); type: biochemical; details: recombinant hACC2 transcreener assay; read-out: rhACC2 IC50
T1 construct: a full length Cytomax clone of ACC2 was purchased from Cambridge Bioscience Limited; made in house; host or cells: CHO cells (tetracycline induction, pcDNA5 FRT TO-TOPO); purified on a Softlink Soft Release Avidin column
How it was run: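 Purified hACC2 from tetracycline-induced CHO cells (avidin-column eluate) was run in 50 mM HEPES pH7.5, 5 mM MgCl2, 5 mM citrate, 2 mM DTT, 0.5 mg/mL BSA with 30 μM acetyl-CoA, 50 μM ATP and 8 mM KHCO3. Reaction lasted 1 hour at room temperature; ADP was detected by Transcreener FP after another 1 hour.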

T1 sequence (O00763 whole entry): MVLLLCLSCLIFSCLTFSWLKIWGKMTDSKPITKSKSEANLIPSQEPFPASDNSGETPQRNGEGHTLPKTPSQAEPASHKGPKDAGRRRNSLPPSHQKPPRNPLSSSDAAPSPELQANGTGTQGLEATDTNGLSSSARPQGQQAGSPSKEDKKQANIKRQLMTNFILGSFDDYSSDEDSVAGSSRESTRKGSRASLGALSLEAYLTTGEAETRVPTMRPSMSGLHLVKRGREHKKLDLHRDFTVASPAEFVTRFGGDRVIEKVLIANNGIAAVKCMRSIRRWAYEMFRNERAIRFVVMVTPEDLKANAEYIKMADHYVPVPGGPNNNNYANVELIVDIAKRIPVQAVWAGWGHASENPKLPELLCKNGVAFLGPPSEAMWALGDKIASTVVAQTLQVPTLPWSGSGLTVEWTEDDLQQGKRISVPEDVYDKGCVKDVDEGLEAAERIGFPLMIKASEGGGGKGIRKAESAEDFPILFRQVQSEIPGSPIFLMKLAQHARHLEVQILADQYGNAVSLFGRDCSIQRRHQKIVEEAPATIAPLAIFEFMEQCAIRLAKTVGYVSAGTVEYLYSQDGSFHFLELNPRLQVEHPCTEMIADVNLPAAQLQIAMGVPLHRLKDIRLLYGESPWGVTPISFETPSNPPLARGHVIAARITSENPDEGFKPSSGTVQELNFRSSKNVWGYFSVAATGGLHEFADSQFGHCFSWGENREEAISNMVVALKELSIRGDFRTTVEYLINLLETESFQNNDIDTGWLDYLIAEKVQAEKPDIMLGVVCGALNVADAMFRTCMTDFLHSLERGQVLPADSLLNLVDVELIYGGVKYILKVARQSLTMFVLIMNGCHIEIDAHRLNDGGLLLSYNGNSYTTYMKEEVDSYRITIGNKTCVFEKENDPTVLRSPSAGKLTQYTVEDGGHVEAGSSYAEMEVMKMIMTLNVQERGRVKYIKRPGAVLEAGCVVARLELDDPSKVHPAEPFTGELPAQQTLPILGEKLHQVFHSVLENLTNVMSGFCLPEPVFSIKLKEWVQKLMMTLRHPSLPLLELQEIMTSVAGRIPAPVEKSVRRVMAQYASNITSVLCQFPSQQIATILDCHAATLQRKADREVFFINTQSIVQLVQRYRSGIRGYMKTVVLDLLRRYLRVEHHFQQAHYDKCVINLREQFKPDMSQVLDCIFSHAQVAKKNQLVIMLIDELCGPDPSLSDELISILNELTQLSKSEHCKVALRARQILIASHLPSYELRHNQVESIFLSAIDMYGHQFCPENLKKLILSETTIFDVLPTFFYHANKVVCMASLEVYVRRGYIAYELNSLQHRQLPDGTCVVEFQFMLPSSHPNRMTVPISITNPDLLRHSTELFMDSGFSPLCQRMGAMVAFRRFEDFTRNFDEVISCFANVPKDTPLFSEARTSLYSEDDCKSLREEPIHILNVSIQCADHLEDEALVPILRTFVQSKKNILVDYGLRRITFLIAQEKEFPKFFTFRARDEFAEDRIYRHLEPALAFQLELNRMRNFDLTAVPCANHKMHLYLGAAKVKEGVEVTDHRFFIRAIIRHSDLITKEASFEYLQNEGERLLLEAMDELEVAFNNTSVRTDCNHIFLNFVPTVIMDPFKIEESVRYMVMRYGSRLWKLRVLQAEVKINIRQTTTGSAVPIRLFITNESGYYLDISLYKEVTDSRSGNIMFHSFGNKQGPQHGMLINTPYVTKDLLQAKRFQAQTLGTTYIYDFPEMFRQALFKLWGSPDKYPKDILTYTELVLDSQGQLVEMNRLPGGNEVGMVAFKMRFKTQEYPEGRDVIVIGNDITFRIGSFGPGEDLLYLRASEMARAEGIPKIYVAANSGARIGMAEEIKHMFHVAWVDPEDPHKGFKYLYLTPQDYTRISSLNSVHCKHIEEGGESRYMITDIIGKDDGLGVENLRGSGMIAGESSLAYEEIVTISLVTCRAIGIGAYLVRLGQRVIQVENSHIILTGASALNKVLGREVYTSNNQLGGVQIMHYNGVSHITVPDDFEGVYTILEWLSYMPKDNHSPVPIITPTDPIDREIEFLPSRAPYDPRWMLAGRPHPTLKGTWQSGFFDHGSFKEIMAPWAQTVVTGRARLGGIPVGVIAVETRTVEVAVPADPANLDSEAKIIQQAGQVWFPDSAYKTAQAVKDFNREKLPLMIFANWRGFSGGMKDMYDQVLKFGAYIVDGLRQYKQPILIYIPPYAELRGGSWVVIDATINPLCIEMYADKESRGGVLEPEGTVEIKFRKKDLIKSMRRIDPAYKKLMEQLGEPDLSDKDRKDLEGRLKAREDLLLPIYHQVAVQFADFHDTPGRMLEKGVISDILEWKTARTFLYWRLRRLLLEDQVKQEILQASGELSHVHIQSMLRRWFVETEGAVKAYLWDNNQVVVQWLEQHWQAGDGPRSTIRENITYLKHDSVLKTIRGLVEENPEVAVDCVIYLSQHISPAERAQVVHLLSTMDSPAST

pIC50 [1] | pIC50 [4] | Compound | further results
7.77 |  | CC(C)(C)n1cc2c(n1)C(=O)CC1(CCN(C(=O)c3ccc4[nH]ncc4c3)CC1)O2 [1.074] | Percent decrease in Muscle Malonyl-CoA (quadriceps) ([2]; dose 1 mg/kg): 2.34 (5.44) %; Percent decrease in Muscle Malonyl-CoA (quadriceps) ([2]; dose 3 mg/kg): 24.42 (6.83) %; Percent decrease in Muscle Malonyl-CoA (quadriceps) ([2]; dose 10 mg/kg): 49.00 (2.40) %; Percent decrease in Muscle Malonyl-CoA (quadriceps) ([2]; dose 30 mg/kg): 57.06 (2.04) %; Percent decrease in Liver Malonyl-CoA ([3]; dose 1 mg/kg): 34.97 (2.59) %; Percent decrease in Liver Malonyl-CoA ([3]; dose 3 mg/kg): 53.97 (1.19) %; Percent decrease in Liver Malonyl-CoA ([3]; dose 10 mg/kg): 70.74 (3.49) %; Percent decrease in Liver Malonyl-CoA ([3]; dose 30 mg/kg): 63.60 (3.57) %
7.82 | 7.31 | Cc1c(C(=O)N2CCC3(CC2)CC(=O)c2nn(C(C)(C)C)cc2O3)ccc2[nH]ncc12 [1.147] | 
8.00 | 8.40 | Cc1nc2c(C)cc(C(=O)N3CCC4(CC3)CC(=O)c3nn(C(C)(C)C)cc3O4)cc2[nH]1 [3.003] | 
8.05 | 7.54 | CCn1nc2c(c1C)OC1(CCN(C(=O)c3cc(C)c4[nH]cc(C)c4c3)CC1)CC2=O [4.001] | 
6.70 | 6.83 | CC(C)n1cc2c(n1)C(=O)CC1(CCN(C(=O)c3ccc4cn(C)nc4c3)CC1)O2 [5.002] | 
7.11 | 7.42 | COc1ccc2cc(C(=O)N3CCC4(CC3)CC(=O)c3nn(C(C)(C)C)cc3O4)ccc2c1 [6.004] | 
7.34 | 7.60 | CC(C)(C)n1cc2c(n1)C(=O)CC1(CCN(C(=O)c3ccc4ncsc4c3)CC1)O2 [10.002] | 
